# According to patent US7741521B2, “Inhibition of bid-induced cell-death using small organic molecules” (The Burnham Institute, priority 2004, dated 2010):
# Experiments:
# [1] = target: T1, tBID (Mus musculus, UniProt P70444); test: tBID-induced Smac release from isolated mitochondria; assay type: biochemical; details: 50 μM compound; isolated mitochondria
# T1 construct: tBID was produced by cleavage of purified BID with caspase-8, as known in the art; made in house; host or cells: E. coli BL21 (BID), then cleaved in vitro with caspase-8
# T1 sequence (P70444 60-195 limits assumed): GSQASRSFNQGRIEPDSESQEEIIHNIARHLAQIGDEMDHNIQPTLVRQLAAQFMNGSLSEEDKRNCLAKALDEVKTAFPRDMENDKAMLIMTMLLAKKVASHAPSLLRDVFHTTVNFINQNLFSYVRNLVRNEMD
# T1 sequence (P70444 1-59 partner limits assumed): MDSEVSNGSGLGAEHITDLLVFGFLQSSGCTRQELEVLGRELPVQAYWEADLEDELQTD
# Experimental: 100 ng of tBID (cleaved by caspase 8) was pre-incubated with various concentrations of compounds for 15 minutes at 30° C. in HM buffer (10 mM Hepes, pH 7.4, 250 mM Mannitol, 10 mM KCl, 1.5 mM MgCl, 1 mM DTT, 1 mM EGTA), then 50 μg of isolated mitochondria from HCT116 cells were added to a final volume of 50 μl in HM buffer. After 1 hour incubation at 30° C., the samples were centrifuged at 10,000×g for 5 minutes at 4° C. and the supernatant was analyzed by SDS-PAGE/immunoblotting using anti-SMAC antibody.
# Compounds II-IX were tested in vitro for their ability to inhibit BID-mediated release of Smac using mitochondria isolated from HeLa cells (FIG. 6A). The first lane represents mitochondria incubated without tBID. All others received 100 ng tBID without or with compounds. Each compound was tested at a concentration of 50 μM. […] To preliminarily investigate the mechanism by which compound II reduces Smac-release from isolated mitochondria, the tBID protein was treated with different concentrations of BI-6C9, after which it was incubated with mitochondria, followed by analysis of the bound and unbound fractions by immunoblotting using BID antibody. The concentration of mitochondria-bound tBID diminished in response to increasing concentrations of compound II.
# About 50 ng of tBID cleaved by […] was pre-incubated for about 15 minutes at about 30° C. with various concentrations of compounds I, II, and X. Then, about 50 μg of isolated mitochondria from Hela cells were added to the reaction system. After about 1 hour of incubation at about 30° C., the samples were centrifuged at 10,000×g for about 5 minutes at about 4° C., and the supernatant was analyzed by SDS-PAGE/immunoblotting using Smac antibody. The results of the analysis are presented on FIG. 8. As shown by FIG. 9, compound I is a strong binder for BID.
# Some results of comparative studies of compounds I and II are shown on FIG. 10. […] The first lane represents mitochondria incubated without tBID. All others received 50 ng tBid without or with bi-dentate compound.
# [2] = target: T2, BID (Mus musculus, UniProt P70444); test: NMR binding to BID (HSQC/TROSY chemical shifts); details: NMR
# T2 construct: poly-His (N); made in house; host or cells: E. coli BL21
# T2 sequence (P70444 1-195): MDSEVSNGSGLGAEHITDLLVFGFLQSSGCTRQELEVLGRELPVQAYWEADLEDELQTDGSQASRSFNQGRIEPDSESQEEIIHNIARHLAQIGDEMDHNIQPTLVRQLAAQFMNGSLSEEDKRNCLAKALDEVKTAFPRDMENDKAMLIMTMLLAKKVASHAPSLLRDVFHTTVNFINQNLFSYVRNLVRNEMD
# Experimental: Recombinant full length mouse BID was produced from a pET-19b (Novagen) plasmid construct containing the entire nucleotide sequence for BID fused to an N-terminal poly-His tag. Unlabeled BID was expressed in E. coli BL21 in LB media at 37° C., with an induction period of 3-4 hours with 1 mM IPTG. ^15N-labeled BID was similarly produced, with growth occurring in M9 media supplemented with 0.5 g/L ^15NH4Cl. ε-^13C-Met labeled BID was produced in M9 media supplemented with 50 mg/L of ε-^13C-Met at time of induction with IPTG. Following cell lysis, soluble BID was purified over a Hi-Trap chelating column (Amersham, Pharmacia), followed by ion-exchange purification with a MonoQ (Amersham, Pharmacia) column. Final BID samples were dialyzed into a buffer appropriate for the subsequent experiments. tBID was produced by cleavage of purified BID with caspase-8, as known in the art.
# For all NMR experiments, BID was exchanged into 50 mM phosphate buffer at pH 7.5 and measurements were performed at 30° C. 2D [^15N,^1H]-TROSY spectra for BID were measured with 0.5 mM samples of ^15N-labeled BID. 2D [^13C,^1H]-HSQC spectra were measured with 0.2 mM samples of ε-^13C-Met labeled BID. 2D [^1H,^1H]-NOESY spectra were acquired with small molecules at a concentration of 0.9 mM in the presence of 10 μM BID. T1ρ competition experiments (200 msec spin-lock duration) were performed on either 100 μM BI-2A7 or a mixture of 100 μM BI-2A7 and 10 μM BI-6C9, in the presence and absence of 10 μM BID. All experiments were performed with either a 500 MHz or 600 MHz Bruker Avance spectrometer, both equipped with TXI probes. Typical parameters for the 2D [^15N,^1H]-TROSY spectra included ^1H and ^15N π/2 pulse lengths of 11 μsec and 40 μsec, respectively; ^1H and ^15N sweep widths of 12 ppm and 32 ppm, respectively; 16 scans and 256 indirect acquisition points and a recycle delay of 1 sec. For the 2D [^13C,^1H]-HSQC typical parameters included ^1H and ^13C π/2 pulse lengths of 10 μsec and 13 μsec, respectively; ^1H and ^13C sweep widths of 12 ppm and 5 ppm, respectively; 128 scans and 80 indirect acquisition points and a recycle delay of 1 sec. […]
# To examine the binding affinity of some compounds of the invention to BID, 2D [^13C,^1H]-HSQC spectra in presence of ^13C methionine-labeled protein were measured, as at least one methionine is present in the hydrophobic groove of BID (FIG. 4B). […]
# Monitoring the variation of cross-peak intensity upon addition of increasing amounts of compound II, allowed to estimate its dissociation constant KD. The arrow on FIG. 5C indicates the peak that was monitored to determine the Kd for compound II. […]
SMILES,inhibition at 50 µM [1],binding to BID [2]
Nc1ccc(Sc2ccc(N)cc2)cc1 [XII],22%,weak binder
"COc1ccc(S(=O)(=O)NCCCCCC(=O)Nc2ccc(Sc3ccc([N+](=O)[O-])cc3)cc2)cc1 [Compound V, 6-(4-methoxy-benzenesulfonylamino)-hexanoic acid [4-(4-nitro-phenylsulfanyl)-phenyl]-amide]",16%,–
"CC(C)(C)OC(=O)NCCCC(=O)Nc1ccc(Sc2ccc([N+](=O)[O-])cc2)cc1 [Compound VI, {3-[4-(4-nitro-phenylsulfanyl)-phenylcarbamoyl]-propyl}-carbamic acid tert-butyl ester]",14%,–

# Continued, in another order:
inhibition at 50 µM [1],SMILES,binding to BID [2]
66%,"NCCCC(=O)Nc1ccc(Sc2ccc([N+](=O)[O-])cc2)cc1 [Compound VII, 4-amino-N-[4-(4-nitro-phenylsulfanyl)-phenyl]-butyramide]",–
0%,CNS(=O)(=O)c1ccc(C)cc1 [X],–
60%,"NCCCCCC(=O)Nc1ccc(Sc2ccc([N+](=O)[O-])cc2)cc1 [Compound IX, 6-amino-hexanoic acid [4-(4-nitro-phenylsulfanyl)-phenyl]-amide]",–
24%,"COc1ccc(S(=O)(=O)NCCCC(=O)Nc2ccc(Sc3ccc([N+](=O)[O-])cc3)cc2)cc1 [Compound III, 4-(4-methoxy-benzenesulfonylamino)-N-[4-(4-nitro-phenylsulfanyl)-phenyl]-butyramide]",–
0%,"CC(C)(C)OC(=O)NCCCCCC(=O)Nc1ccc(Sc2ccc([N+](=O)[O-])cc2)cc1 [Compound VIII, {5-[4-(4-nitro-phenylsulfanyl)-phenylcarbamoyl]-pentyl}-carbamic acid tert-butyl ester]",–
